Test results published in paper PMC2820545, “Mechanistic Characterization and Molecular Modeling of Hepatitis B Virus Polymerase Resistance to Entecavir” (PLoS ONE, 2010).
Read-outs that look alike come from different tables or passages of the source.

What was measured:
[1] = test system: LVDr + M250V HBV; experiment: HBV cell culture susceptibility (HBV-transfected HepG2 cells); type: cell-based; conditions: Hepatitis B virus, averaged from 2 isolates, read-out: ETV EC50, Average ± SD (Range)
Procedure: (§1) HepG2 human hepatoma cells (American Type Culture Collection) were maintained as described. The laboratory clone of HBV was the genotype D ayw serotype clone kindly provided by Dr. Steven Goff in the plasmid pCMV-HBV [41]. Plasmids expressing HBV RT with resistance substitutions were prepared using QuikChange® site-directed mutagenesis (Stratagene, LaJolla, CA).
(§2) HepG2 cell culture susceptibility assays were performed in cells transfected with HBV expression plasmids and cultured in the presence of a titration of antiviral compounds, as described in detail elsewhere. The levels of replicated, released HBV virions was measured at day five through immunocapture of detergent released nucleocapsids with anti-HBV core Ab and quantification of encapsidated HBV DNA [5]. Data were plotted as percent inhibition and EC50 values calculated as the drug concentration where 50% inhibition of extracellular HBV occurred.

[2] = test system: LVDr + S202G HBV; experiment: as above; type: cell-based; conditions: Hepatitis B virus, averaged from 2 isolates, read-out: ETV EC50, Average ± SD (Range)
Procedure: as §1, §2

[3] = test system: LVDr + T184G + S202I HBV; experiment: as above; type: cell-based; conditions: Hepatitis B virus, single patient isolate, read-out: ETV EC50, Average ± SD (Range)
Procedure: as §1, §2

[4] = test system: LVDr + T184L HBV; experiment: as above; type: cell-based; conditions: Hepatitis B virus, averaged from 2 isolates, read-out: ETV EC50, Average ± SD (Range)
Procedure: as §1, §2

[5] = test system: LVDr L180M + M204V HBV; experiment: as above; type: cell-based; conditions: Hepatitis B virus
Procedure: as §1, §2

[6] = test system: Wildtype HBV; experiment: as above; type: cell-based; conditions: Hepatitis B virus
Procedure: as §1, §2

[7] = test system: HBV clones with ETVr signature substitutions in a LVDr background; experiment: HBV cell culture susceptibility, ETVr clones as a group; type: cell-based, hepatitis B virus
Description: The levels of ETVr observed in cell culture and in vitro enzymatic assays of representative clones with ETVr substitutions are shown in Table 1. […] High levels of ETVr were observed when HBV clones contained ETVr signature substitutions in a LVDr background both in vitro (>400-fold) and in culture (>200-fold), respectively (Table 1). A full analysis of the different ETVr substitutions in culture has been reported for engineered and clinical ETVr HBV isolates.
as §2

[8] = test system: LVDr HBV with M250V or M250L; experiment: HBV cell culture strand-specific EC50 determination; type: cell-based, hepatitis B virus; conditions: strand-specific riboprobes
Description: (§3) ETV inhibits HBV polymerase synthesis of DNA in vitro during both RNA-directed first (minus) strand synthesis as well as DNA-directed second (plus) strand synthesis. To determine if ETVr was influenced by the template for DNA synthesis, cell culture EC50 determinations were made using strand-specific riboprobes to hybridize to the synthesized HBV DNA, in parallel with the typical double-stranded DNA probe. In this way an ETV EC50 for each strand of DNA synthesis during the HBV cell culture was determined. […] The minus strand EC50 was similar to the EC50 obtained using the double-stranded DNA probe. These observations are consistent with M250 changes in the primer-grip region of HBV RT influencing ETVr at least in part through the template for DNA synthesis. An independent observation supported this hypothesis; resistance was seen using nucleocapsids prepared in our typical manner (Materials & Methods), isolated from cells grown in PFA to inhibit minus strand synthesis, enhancing the in vitro minus-strand synthesis activity of the preparations. […]
(§4) Figure 5 Analysis of ETVr through strand-specific DNA synthesis in culture. […] The levels of HBV DNA synthesized in the presence of ETV was determined by HBV-specific probe hybridization to HBV nucleocapsid DNA from the cultures. […]

[9] = test system: wildtype, LVDr substituted and LVDr + T184 or S202 substituted HBV; experiment: as above; type: cell-based, hepatitis B virus; conditions: strand-specific riboprobes, minus vs plus strand synthesis
Description: as §3, §4

[10] = test system: wildtype or ETVr HBV polymerase; experiment: Pyrophosphorolysis removal of incorporated ETV from HBV DNA; type: biochemical, hepatitis B virus; conditions: wildtype or ETVr enzymes; data not shown
Description: The inability of ETV to be proofread by HIV RT has been reported by Tchesnokov et al..

[11] = test system: LVDr L180M + M204V HBV; set-up: method as in PMID 17267485, PMID 18362040; conditions: cited from earlier work

SMILES: C=C1[C@H](CO)[C@@H](O)C[C@@H]1n1cnc2c(=O)[nH]c(N)nc21 [ETV, Entecavir]
- EC50 [1]: 3080 nM
- EC50 [2]: 1210 nM
- EC50 [3]: > 4000 nM
- EC50 [4]: 738 ± 119 nM
- EC50 ([5]; Cell culture, LVDr L180M + M204V, single isolate, read-out: ETV EC50, Average ± SD (Range)): 30.4 ± 21.6 nM
- EC50 ([5]; panel of 15 LVDr isolates, read-out: average ETV EC50): 31.1 nM
- EC50 ([6]; Cell culture, Wildtype HBV, single isolate, read-out: ETV EC50, Average ± SD (Range)): 3 ± 1.5 nM
- EC50 ([6]; panel of 76 wildtype isolates, read-out: average ETV EC50): 3.4 nM
- level of ETVr in culture [7]: > 200 fold
- strand-specific ETV EC50, first (minus) strand versus second (plus) strand [8]: increased relative to that for the second (plus) strand
- strand-specific ETV EC50, both strands of HBV DNA compared [9]: nearly equivalent levels of susceptibility
- removal of ETV incorporated into HBV DNA using pyrophosphorolysis [10]: unable to demonstrate removal
- cross-resistance to ETV in culture [11]: approximately 8 fold
